# Measured values from patent US20140135310A1, “SULPHONAMIDE DERIVATIVES OF ALICYCLIC AMINES FOR THE TREATMENT OF CENTRAL NERVOUS SYSTEM DISEASES” (Adamed Sp. z o.o., priority 2011, published 2014).
# Assays:
# receptors D4.4 = target: T1, receptors D4.4 (Homo sapiens, UniProt P21917); assay: Radioligand binding assay, dopaminergic D4 (D4.4) receptors; settings: test compound 1×10^−6 M
# T1 sequence (P21917 1-419): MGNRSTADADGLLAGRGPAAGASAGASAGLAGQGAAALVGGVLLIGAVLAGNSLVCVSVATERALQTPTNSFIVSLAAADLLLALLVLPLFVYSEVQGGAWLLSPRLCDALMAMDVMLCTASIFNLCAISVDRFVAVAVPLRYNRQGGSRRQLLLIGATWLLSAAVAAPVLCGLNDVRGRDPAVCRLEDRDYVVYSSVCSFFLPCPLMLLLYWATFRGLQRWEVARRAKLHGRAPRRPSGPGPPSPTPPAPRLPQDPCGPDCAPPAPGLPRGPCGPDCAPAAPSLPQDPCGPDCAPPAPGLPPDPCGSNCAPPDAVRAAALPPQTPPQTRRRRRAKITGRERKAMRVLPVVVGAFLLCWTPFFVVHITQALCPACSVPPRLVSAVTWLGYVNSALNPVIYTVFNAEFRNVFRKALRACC
# Procedure, shortened: (§1)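 Competition radioligand binding at human D2, D3 and D4.4 receptors, detected by scintillation counting; nonspecific binding defined with excess unlabelled ligand. Results as percent inhibition of control specific binding; IC50 by Hill-equation nonlinear regression; Ki via Cheng-Prusoff, with radioligand KD from Scatchard plot.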
# 5-HT2A receptor = target: T2, 5-HT2A receptor (Homo sapiens, UniProt P28223); assay: Radioligand binding assay, serotoninergic 5-HT2A receptors; settings: for Ki: read-out: Inhibition constants Ki, 5-HT2A; for inhibition at 1 µM / 5-HT2A [%]: binding assay result in %, Table 5a
# T2 construct: purchased PerkinElmer
# T2 sequence (P28223 whole entry): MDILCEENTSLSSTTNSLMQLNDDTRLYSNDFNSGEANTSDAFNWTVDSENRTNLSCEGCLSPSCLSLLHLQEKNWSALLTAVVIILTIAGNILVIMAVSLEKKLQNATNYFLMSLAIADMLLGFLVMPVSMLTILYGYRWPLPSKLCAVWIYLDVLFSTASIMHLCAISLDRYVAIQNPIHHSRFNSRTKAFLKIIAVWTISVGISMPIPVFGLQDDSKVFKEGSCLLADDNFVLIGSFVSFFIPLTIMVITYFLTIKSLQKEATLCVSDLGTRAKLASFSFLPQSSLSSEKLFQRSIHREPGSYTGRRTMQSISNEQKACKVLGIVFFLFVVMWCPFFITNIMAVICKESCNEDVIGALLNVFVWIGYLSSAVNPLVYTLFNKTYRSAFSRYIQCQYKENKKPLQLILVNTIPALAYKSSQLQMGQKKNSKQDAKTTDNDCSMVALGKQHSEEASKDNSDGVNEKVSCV
# Procedure, shortened: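 Radioligand competition binding with scintillation counting; nonspecific binding defined by excess unlabelled ligand. Data as percent inhibition of control specific binding. IC50 by Hill-equation fit of competition curves; Ki by Cheng-Prusoff, with radioligand Kd from Scatchard plot.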
# 5-HT6 receptor = target: T3, 5-HT6 receptor (Homo sapiens, UniProt P50406); assay: Radioligand binding assay, serotoninergic 5-HT6 receptors; settings: for inhibition at 1 µM / 5-HT6 [%]: binding assay result in %, Table 5a; for Ki: read-out: Inhibition constants Ki, 5-HT6
# T3 construct: purchased PerkinElmer
# T3 sequence (P50406 whole entry): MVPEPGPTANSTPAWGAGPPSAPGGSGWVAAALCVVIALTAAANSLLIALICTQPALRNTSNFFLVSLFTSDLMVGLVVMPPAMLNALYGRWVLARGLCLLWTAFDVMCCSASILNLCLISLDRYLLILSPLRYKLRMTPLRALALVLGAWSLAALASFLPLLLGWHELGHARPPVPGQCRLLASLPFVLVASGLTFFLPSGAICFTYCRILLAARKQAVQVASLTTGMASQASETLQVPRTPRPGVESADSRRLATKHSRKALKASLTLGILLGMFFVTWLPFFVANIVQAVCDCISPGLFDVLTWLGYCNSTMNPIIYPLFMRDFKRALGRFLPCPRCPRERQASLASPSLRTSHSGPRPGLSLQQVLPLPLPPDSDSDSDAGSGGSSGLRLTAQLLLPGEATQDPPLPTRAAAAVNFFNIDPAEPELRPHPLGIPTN
# Procedure, shortened: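 Values are Ki from Cheng–Prusoff, taking IC50 from Hill nonlinear regression of competition curves and KD from a Scatchard plot. Specific binding was total minus binding with excess unlabelled ligand. Radioligand displacement was detected by scintillation counting, and data were also reported as percent of control specific binding.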
# [1] = target: dopaminergic receptors D3 (Homo sapiens, UniProt P35462); assay: Radioligand binding assay, dopaminergic D3 receptors; settings: test compound 1×10^−6 M
# Chain of dopaminergic receptors D3 (P35462 whole entry): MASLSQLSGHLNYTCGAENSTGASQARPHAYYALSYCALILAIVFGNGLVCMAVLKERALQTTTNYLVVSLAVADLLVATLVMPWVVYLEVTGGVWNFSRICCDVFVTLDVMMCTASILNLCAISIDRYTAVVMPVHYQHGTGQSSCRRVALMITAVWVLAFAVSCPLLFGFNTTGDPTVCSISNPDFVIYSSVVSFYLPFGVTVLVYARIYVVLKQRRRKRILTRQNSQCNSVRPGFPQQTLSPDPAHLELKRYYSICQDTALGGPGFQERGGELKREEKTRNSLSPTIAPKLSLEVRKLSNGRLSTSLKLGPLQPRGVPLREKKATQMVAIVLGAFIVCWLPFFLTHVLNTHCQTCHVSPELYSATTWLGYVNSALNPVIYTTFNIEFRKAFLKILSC
# Procedure, shortened: as §1
# 5-HT2C receptor = target: T4, 5-HT2C receptor (Homo sapiens, UniProt P28335); assay: Radioligand binding assay, serotoninergic 5-HT2C receptors; settings: test compound 1×10^−6 M
# T4 construct: expressed in transfected cells; host or cells: HEK-293 cells
# T4 sequence (P28335 33-458): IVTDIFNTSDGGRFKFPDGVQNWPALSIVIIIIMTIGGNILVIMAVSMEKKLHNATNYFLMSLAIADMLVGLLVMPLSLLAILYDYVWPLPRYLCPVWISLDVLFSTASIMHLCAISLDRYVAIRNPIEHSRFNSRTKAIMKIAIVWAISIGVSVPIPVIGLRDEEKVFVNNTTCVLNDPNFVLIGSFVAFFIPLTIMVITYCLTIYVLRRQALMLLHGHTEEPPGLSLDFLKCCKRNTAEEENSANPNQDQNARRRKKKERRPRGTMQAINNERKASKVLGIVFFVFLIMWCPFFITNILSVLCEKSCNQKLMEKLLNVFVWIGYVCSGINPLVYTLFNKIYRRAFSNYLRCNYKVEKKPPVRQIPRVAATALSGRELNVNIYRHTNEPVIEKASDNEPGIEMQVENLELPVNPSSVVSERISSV
# [2] = target: dopaminergic receptors D2 (Homo sapiens, UniProt P14416); assay: Radioligand binding assay, dopaminergic D2 receptors; settings: for inhibition at 1 µM / D2 [%]: binding assay, test compound 1×10^−6 M; for Ki: read-out: Inhibition constants Ki for D2 receptors, D2
# Chain of dopaminergic receptors D2 (P14416 whole entry): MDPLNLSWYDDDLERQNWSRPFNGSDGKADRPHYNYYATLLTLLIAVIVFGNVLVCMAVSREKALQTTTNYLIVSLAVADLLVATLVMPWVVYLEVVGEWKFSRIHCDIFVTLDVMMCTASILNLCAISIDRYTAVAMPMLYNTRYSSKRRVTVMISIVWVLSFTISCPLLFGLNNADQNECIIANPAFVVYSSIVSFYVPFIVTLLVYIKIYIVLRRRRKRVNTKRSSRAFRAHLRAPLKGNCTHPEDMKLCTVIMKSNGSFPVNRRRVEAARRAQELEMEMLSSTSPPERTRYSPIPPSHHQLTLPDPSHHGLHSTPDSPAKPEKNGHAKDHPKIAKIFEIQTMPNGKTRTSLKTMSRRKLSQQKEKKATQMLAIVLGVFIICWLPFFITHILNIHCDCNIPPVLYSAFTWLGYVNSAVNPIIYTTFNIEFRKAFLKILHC
# Procedure, shortened: as §1
# [3] = target: T5, H1 histaminergic receptors (Homo sapiens, UniProt P35367); assay: Radioligand binding assay, histaminergic H1 receptors; settings: human recombinant (HEK-293 cells), [3H]pyrilamine 1 nM
# T5 construct: expressed in transfected cells; host or cells: HEK-293 cells
# T5 sequence (P35367 whole entry): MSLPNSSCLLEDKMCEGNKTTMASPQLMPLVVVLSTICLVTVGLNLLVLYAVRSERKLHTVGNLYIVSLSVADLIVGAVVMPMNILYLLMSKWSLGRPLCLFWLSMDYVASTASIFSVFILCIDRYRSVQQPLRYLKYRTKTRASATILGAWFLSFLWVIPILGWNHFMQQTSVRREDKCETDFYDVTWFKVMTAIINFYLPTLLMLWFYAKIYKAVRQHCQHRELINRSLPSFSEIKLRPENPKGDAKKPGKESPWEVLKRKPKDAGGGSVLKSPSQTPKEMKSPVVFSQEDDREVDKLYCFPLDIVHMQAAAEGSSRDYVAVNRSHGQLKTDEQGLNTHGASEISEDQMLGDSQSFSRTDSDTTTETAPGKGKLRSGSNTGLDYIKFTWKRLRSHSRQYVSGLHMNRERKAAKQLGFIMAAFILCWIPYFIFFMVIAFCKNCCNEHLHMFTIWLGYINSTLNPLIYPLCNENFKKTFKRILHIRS
# Procedure, shortened: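 Competition binding at human H1 receptors; specific binding taken as total minus non-specific binding in excess unlabelled ligand, scintillation read-out. IC50 from Hill-equation fit of competition curves; Ki by Cheng-Prusoff using radioligand concentration and Kd (from Scatchard plot).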
# α2C adrenergic receptors = target: T6, α2C adrenergic receptors (Homo sapiens, UniProt P18825); assay: Radioligand binding assay, adrenergic α2C receptors; settings: test compound 1×10^−6 M
# T6 construct: expressed in transfected cells; host or cells: CHO cells
# T6 sequence (P18825 1-462): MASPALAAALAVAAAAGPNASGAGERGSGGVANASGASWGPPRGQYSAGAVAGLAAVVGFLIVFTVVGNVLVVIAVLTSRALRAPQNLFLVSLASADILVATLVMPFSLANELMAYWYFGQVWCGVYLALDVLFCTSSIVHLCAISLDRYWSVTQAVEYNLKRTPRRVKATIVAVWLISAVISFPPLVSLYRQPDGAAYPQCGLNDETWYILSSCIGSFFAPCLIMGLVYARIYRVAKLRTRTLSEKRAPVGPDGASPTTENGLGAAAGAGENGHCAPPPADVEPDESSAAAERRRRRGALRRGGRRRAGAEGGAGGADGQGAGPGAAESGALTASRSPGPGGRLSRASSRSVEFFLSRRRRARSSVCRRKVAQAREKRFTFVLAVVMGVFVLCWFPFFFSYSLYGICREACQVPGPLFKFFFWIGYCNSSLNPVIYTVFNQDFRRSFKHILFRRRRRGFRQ
# Procedure, shortened: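 Competitive radioligand binding at human α2C receptors, with scintillation counting. Nonspecific binding defined with excess unlabelled ligand; results given as % inhibition of control specific binding. IC50 from Hill-equation fits of competition curves; Ki via Cheng-Prusoff using radioligand concentration and Scatchard-derived KD.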
Structure (SMILES),inhibition at 1 µM (receptors D4.4),Ki (5-HT2A receptor),inhibition at 1 µM (5-HT6 receptor),Ki (5-HT6 receptor),inhibition at 1 µM [1],inhibition at 1 µM (5-HT2C receptor),inhibition at 1 µM [2],Ki [2],inhibition at 1 µM [3],inhibition at 1 µM (α2C adrenergic receptors),inhibition at 1 µM (5-HT2A receptor),5-HT2A [%] (5-HT2A receptor),5-HT6 [%] (5-HT6 receptor),D3 [%] [1],D2 [%] [2],D4.4 [%] (receptors D4.4),5-HT2C [%] (5-HT2C receptor),H1 [%] [3],α2C [%] (α2C adrenergic receptors)
"O=S(=O)(N[C@H]1CCN(CCCc2noc3cc(F)ccc23)C1)c1cc2ccc(Cl)cc2s1 [Compound 199, 6-Chloro-N-[(3S)-1-[3-(6-fluoro-1,2-benzoxazol-3-yl)propyl]pyrrolidin-3-yl]benzothiophene-2-sulphonamide]",69%,0.7 nM,91%,99 nM,88%,83%,96%,4.4 nM,58%,82%,–,–,–,–,–,–,–,–,–
"O=S(=O)(NC1CN(CCOc2cccc3[nH]ccc23)C1)c1ccc2ccccc2c1 [Compound 50, N-[1-[2-(1H-Indol-4-yloxy)ethyl]azetidin-3-yl]naphthalene-2-sulphonamide]",94%,–,43%,–,104%,54%,96%,–,34%,108%,97%,–,–,–,–,–,–,–,–
"O=S(=O)(NC1CCN(CCCc2c[nH]c3ccc(Cl)cc23)C1)c1cccc(Cl)c1 (stereo not drawn) [Compound 84, 3-Chloro-N-[1-[3-(5-chloro-1H-indol-3-yl)propyl]pyrrolidin-3-yl]benzenesulphonamide]",94%,–,96%,18 nM,99%,88%,89%,–,79%,105%,78%,–,–,–,–,–,–,–,–
"O=S(=O)(NCC1CN(CCCc2noc3cc(F)ccc23)C1)c1cc2ccccc2s1 [Compound 127, N-[[1-[3-(6-Fluoro-1,2-benzoxazol-3-yl)propyl]azetidin-3-yl]methyl]benzo-thiophene-2-sulphonamide]",55%,4.2 nM,–,18 nM,–,84%,–,22 nM,54%,93%,–,99%,96%,79%,95%,–,–,–,–
"CC1(C)Cc2cccc(OCCN3CCC(NS(=O)(=O)c4ccc5ccccc5c4)CC3)c2O1 [Compound 110, N-[1-[2-[(2,2-Dimethyl-3H-benzofuran-7-yl)oxy]ethyl]-4-piperidine]naphthalene-2-sulphonamide]",–,–,–,–,–,–,–,–,–,–,–,91%,−60%,73%,74%,42%,85%,52%,98%
"COc1ccc2cc(S(=O)(=O)N[C@@H]3CCN(CCCc4noc5cc(F)ccc45)C3)ccc2c1 [Compound 230, N-[(3R)-1-[3-(6-Fluoro-1,2-benzoxazol-3-yl)propyl]pyrrolidin-3-yl]-6-methoxy-naphthalene-2-sulphonamide]",88%,0.4 nM,96%,15 nM,99%,91%,99%,1.1 nM,71%,92%,–,–,–,–,–,–,–,–,–
"O=S(=O)(NCC1CCN(CCOc2cccc3c2OCCO3)C1)c1ccc(Br)cc1 (stereo not drawn) [Compound 305, 4-Bromo-N-[[1-[2-(2,3-dihydro-1,4-benzodioxin-5-yloxy)ethyl]pyrrolidin-3-yl]methyl]benzenesulphonamide]",52%,–,52%,–,48%,59%,57%,–,54%,96%,93%,–,–,–,–,–,–,–,–
"O=S(=O)(NCC1CN(CCCc2noc3cc(F)ccc23)C1)c1ccc(-c2ccccc2)cc1 [Compound 135, N-[[1-[3-(6-Fluoro-1,2-benzoxazol-3-yl)propyl]azetidin-3-yl]methyl]-4-phenyl-benzenesulphonamide]",60%,–,92%,–,94%,86%,92%,–,79%,95%,99%,–,–,–,–,–,–,–,–
